Assay results published in US20100158863A1, “TRIAZOLOANILINOPYRIMIDINE DERIVATIVES FOR USE AS ANTIVIRAL AGENTS” (ARROW THERAPEUTICS LIMITED, priority 2006, published 2010).
Like-named read-outs stand apart in the source and are kept apart here.

Key:
HCV replicon 1b (Huh-9B) = assay: HCV replicon activity, luciferase detection on the replicon plate; type: cell-based, HCV genotype 1b; conditions: Hepatitis C virus; Huh-9B replicon cells, luciferase signal
Text: 1b replicon (Huh.7) described in Science 285, 110-113. • Huh-9B: liver cell line with persistent bicistronic HCV genotype 1b coding sequence: [I3891ucubineo—3-3′_ET] includes firefly luciferase-ubiquitin-neomycin phosphotransferase fusion protein and EMCV-IRES driven non-structural HCV (NS3 to NS5B) coding sequence including cell culture adaptive mutations E1202G, […] and K1846T (Lohmann et al, 2001).
This assay is set up using all 96 wells of flat-bottomed 96-well plates. Plates are set up one day before addition of compounds. The assay then runs for 4 days with ELISA development taking place on the 5th day.
Exponentially growing Huh-9B monolayers are washed with sterile PBS to remove serum and treated with trypsin to detach cells from the flask.
(§1) Cells are suspended in growth media and counted using a haemocytometer. Duplicate 96 well plates are seeded with Huh-9B at a density of 10^4 cells/well in a total volume of 100 μl/well of growth medium without antibiotics as depicted below.
(§2) One of the plates is an opaque white 96-well plate used for IC50 determination based on the luciferase signal (referred as replicon plate), the other one is a clear 96-well plate used for a parallel determination of drug toxicity by methylene blue staining (referred as tox plate). Wells G12 and H12 of the tox plate are left without cells to use as buffer alone background reading.
Plates are then incubated at 37° C. in a 5% CO2 environment for 24 h to obtain a 90% confluent cell monolayer.
(§3) Doubling dilutions of each compound are generated in a separate 96 high volume capacity round bottom plate to twice their initial concentration in the assay using growth medium without antibiotics.
Five compounds (C1 to C5) are tested on each assay plate as illustrated below plus a control compound that is also included in each plate.
(§4) Compounds are tested across an 8 point doubling dilution series. The initial dilution of each compound to be tested is 25 μM and 12.5 μM for the control compound.
DMSO only wells (A1 and A2) at 1% provide the signal corresponding to maximal (100%) luciferase detection. […] The signal from the DMSO wells at 1% (maximal signal) constitutes the assay window.
(§5) For each compound dilution on the 2×96-well dilution plate 100 μl are transferred using a multichannel pipette onto the replicon and tox plates mirror wells which contain […] of medium to obtain the desired final concentration.
Media is tapped out from wells into Virkon and plates are washed once in warm PBS and tapped dry gently.
For each well 20 μl of lysis buffer is added by multichannel pipette. Lysates are stable at this point for several hours.
Luciferase assay buffer is placed it in the luminometer (Lmax, Molecular Devices).
The M injector is primed with 4×300 μl of luciferase assay buffer. The plate to be analyzed is placed in the luminometer and […] of luciferase assay buffer injected automatically into one well followed by 4 seconds integration read out.
After one second delay a second well is injected with 100 μl of luciferase assay buffer followed by 4 seconds integration read out and so forth until all 96 wells are analyzed.
Once the reading is finished the luminometer injection system is washed with deionised water.
The data is acquired using the SOFTmax for Lmax Pro software package.
(§6) SOFTmax data files are exported as Excel or text files. A standard four parameters non-linear regression analysis of the data obtained from each compound is then used to calculate the IC50.
(§7) In the above analysis all replicate wells are meaned. The % of control is then calculated for each concentration point as a percentage of the DMSO control wells.

Huh-9B = assay: Toxicity determination on the tox plate by methylene blue staining; type: cell-based; conditions: Huh-9B cells, parallel tox plate
Procedure: as §1, §2, §3, §4, §5
Media is tapped out from wells into Virkon and plates tapped dry gently. To each well 100 μl of 0.5% solution of methylene blue in 50% methanol is added to all wells including blanks (G12 and H12). Plates are left at RT for a minimum of 1 h. Plates are then rinsed gently by immersing in a plastic box with water, tapped dry gently and left open until they are fully dry. Dye is solubilized adding 100 μl of 1% lauroylsarcosine to each well and shaking for 1 h at 37° C. Plates are read on the SpectraMax spectrophotometer at 620 nm wavelength using the SOFTmax Pro software package.
as §6, §7

HCV replicon 1b = assay: ELISA, combined effect of HCV replication inhibitor with interferon αA; type: cell-based; conditions: for IC50: Hepatitis C virus
Text: ELISA Protocol as in Example 38
The fractional inhibitory concentratin (FIC) can be used to identify a synergistic interaction.

Compound | IC50 (HCV replicon 1b (Huh-9B)) [µM] | Replicon TD50 (Huh-9B) | IC50 (HCV replicon 1b; compound alone, read-out: ELISA IC50 against HCV replicon 1b) [µM] | IC50 (HCV replicon 1b; read-out: IC50 of compound in combination) [µM] | fractional inhibitory concentration (FIC) (HCV replicon 1b; combination with interferon αA, FIC <0.5 = synergy)
COc1ccc(-c2ccc3ncnc(Nc4ccc(-n5cncn5)cc4)c3c2)cc1OC [Example 10, [6-(3,4-Dimethoxy-phenyl)-quinazolin-4-yl]-(4-[1,2,4]triazol-1-yl-phenyl)-amine] | < 5 | * (* <25 μM) | 0.2 | ≤ 0.067 | 0.336
COCCOc1ccc(-c2ccc3ncnc(Nc4ccc(-n5cncn5)cc4)c3c2)cc1F [Example 9, {6-[3-Fluoro-4-(2-methoxy-ethoxy)-phenyl]-quinazolin-4-yl}-(4-[1,2,4]triazol-1-yl-phenyl)-amine] | < 5 | ** (** >25 μM) | – | – | –
Fc1cc(-c2ccc3ncnc(Nc4ccc(-n5cncn5)cc4)c3c2)ccc1OCCCN1CCOCC1 [Example 26, {6-[3-fluoro-4-(3-morpholin-4-yl-propoxy)-phenyl]-quinazoline-4-yl}-(4-[1,2,4]triazole-1-yl-phenyl)amine] | < 5 | * (* <25 μM) | – | – | –
CCOc1ccc(-c2ccc3ncnc(Nc4ccc(-n5cncn5)cc4)c3c2)cc1OCC [Example 11, [6-(3,4-Diethoxy-phenyl)-quinazolin-4-yl]-(4-[1,2,4]triazol-1-yl-phenyl)-amine] | < 5 | ** (** >25 μM) | – | – | –
Brc1ccc2ncnc(Nc3ccc(-n4cncn4)cc3)c2c1 [Example 21, (6-Bromo-quinazolin-4-yl)-(4-[1,2,4]triazol-1-yl-phenyl)-amine] | < 5 | ** (** >25 μM) | – | – | –
CN(C)CCOc1ccc(-c2ccc3ncnc(Nc4ccc(-n5cncn5)cc4)c3c2)cc1F [Example 20, {6-[4-(2-Dimethylamino-ethoxy)-3-fluoro-phenyl]-quinazoline-4-yl}-(4-[1,2,4]triazole-1-yl-phenyl)amine] | < 5 | * (* <25 μM) | – | – | –
COc1ccc(-c2ccc3ncnc(Nc4ccc(-n5cncn5)cc4)c3c2)cc1F [Example 7, [6-(3-Fluoro-4-methoxy-phenyl)-quinazolin-4-yl]-(4-[1,2,4]triazol-1-yl-phenyl)-amine] | < 5 | ** (** >25 μM) | – | – | –
c1csc(-c2ccc3ncnc(Nc4ccc(-n5cncn5)cc4)c3c2)c1 [Example 17, (6-Thiophen-2-yl-quinazolin-4-yl)-(4-[1,2,4]triazol-1-yl-phenyl)-amine] | < 5 | ** (** >25 μM) | – | – | –
